Source: BindingDB's records for doi:10.3109/14756360903179385 (University of Peshawar, 2010)

Each molecule was assayed against Urease (Canavalia ensiformis, UniProt P07374) (assay: Urease Inhibition Assay). Conditions: pH 6.8; 30 °C.
Urease, sequence (P07374 whole entry): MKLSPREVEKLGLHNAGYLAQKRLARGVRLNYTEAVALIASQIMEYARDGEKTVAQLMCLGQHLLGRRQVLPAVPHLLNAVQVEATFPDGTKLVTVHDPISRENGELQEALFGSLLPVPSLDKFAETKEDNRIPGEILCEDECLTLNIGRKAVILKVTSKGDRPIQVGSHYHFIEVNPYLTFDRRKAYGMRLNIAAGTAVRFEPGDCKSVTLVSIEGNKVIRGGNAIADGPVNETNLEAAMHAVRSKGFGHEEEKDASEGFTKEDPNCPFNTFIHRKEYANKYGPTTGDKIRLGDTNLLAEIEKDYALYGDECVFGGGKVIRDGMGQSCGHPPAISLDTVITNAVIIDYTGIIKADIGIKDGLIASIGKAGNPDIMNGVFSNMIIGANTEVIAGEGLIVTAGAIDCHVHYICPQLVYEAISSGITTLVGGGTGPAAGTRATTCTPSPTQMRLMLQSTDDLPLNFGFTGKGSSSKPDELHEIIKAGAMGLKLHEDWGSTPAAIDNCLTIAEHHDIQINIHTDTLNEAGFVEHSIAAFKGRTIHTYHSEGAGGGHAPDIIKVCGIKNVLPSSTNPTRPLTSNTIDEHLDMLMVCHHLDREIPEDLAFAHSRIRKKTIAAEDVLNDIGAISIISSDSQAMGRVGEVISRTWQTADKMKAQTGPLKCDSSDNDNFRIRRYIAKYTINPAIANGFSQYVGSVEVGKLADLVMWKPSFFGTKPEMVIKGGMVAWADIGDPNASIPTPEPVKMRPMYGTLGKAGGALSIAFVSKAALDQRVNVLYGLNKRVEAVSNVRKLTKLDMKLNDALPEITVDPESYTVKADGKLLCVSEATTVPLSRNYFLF
Protocol: Reaction mixtures comprising 25 μL of enzyme (jack bean urease) solution and 55 μL of buffer containing 100 mM urea were incubated with 5 μL of test compound (0.5 mM) at 30°C for 15 min in 96-well plates. Urease activity was determined by measuring the ammonia production using the indophenol method, as described by Weatherburn11. Briefly, 45 μL of each phenol reagent (1% (w/v) phenol and 0.005% (w/v) sodium nitroprussside) and 70 μL of alkali reagent (0.5% (w/v) NaOH and 0.1% active chloride, NaOCl) were added to each well. The increasing absorbanceat 630 nm was measured after 50 min, using a microplate reader (Molecular Devices, Sunnyvale, CA, USA). All reactions were performed in triplicate in a final volume of 200 μL. The results (change in absorbance per min) were processed using SoftMax Pro software (Molecular Devices). The entire assay was performed at pH 6.8.
Work on `O=c1c2cc(O)ccc2oc2cc(O)cc(O)c12` [1,3,7-trihydroxy-9H-xanthen-9-one] yielded an IC50 of 138 µM.
With `O=c1c2cccc(O)c2oc2c(O)c(O)ccc12` [US9114126, MB5] the IC50 was 37.9 µM.
Molecule `CCCCCCCCCCCCCCCCCCCCCCCCOC(=O)C=Cc1ccc(O)c(O)c1` [Tetracosyl 3-(3,4-dihydroxyphenyl) acrylate (2)] has an IC50 of 21 µM.
